Results as given in patent US20240270762A1, “PENICILLIN-BINDING PROTEIN INHIBITORS” (priority 2021, published 2024).
Values after ≈ are worked out from the molar mass of the structure shown.

Columns and labels:
[1] = biological target: T1, PBP1a from Acinetobacter baumannii (ATCC 19606) (Acinetobacter baumannii, UniProt A0ABX6CK30); assay: Bocillin-FL fluorescence polarization competition binding, A. baumannii PBP1a; conditions: fluorescence polarization competition binding assay using Bocillin-FL; read-out: A. baumannii PBP1a Potency
T1 sequence (A0ABX6CK30 1-851): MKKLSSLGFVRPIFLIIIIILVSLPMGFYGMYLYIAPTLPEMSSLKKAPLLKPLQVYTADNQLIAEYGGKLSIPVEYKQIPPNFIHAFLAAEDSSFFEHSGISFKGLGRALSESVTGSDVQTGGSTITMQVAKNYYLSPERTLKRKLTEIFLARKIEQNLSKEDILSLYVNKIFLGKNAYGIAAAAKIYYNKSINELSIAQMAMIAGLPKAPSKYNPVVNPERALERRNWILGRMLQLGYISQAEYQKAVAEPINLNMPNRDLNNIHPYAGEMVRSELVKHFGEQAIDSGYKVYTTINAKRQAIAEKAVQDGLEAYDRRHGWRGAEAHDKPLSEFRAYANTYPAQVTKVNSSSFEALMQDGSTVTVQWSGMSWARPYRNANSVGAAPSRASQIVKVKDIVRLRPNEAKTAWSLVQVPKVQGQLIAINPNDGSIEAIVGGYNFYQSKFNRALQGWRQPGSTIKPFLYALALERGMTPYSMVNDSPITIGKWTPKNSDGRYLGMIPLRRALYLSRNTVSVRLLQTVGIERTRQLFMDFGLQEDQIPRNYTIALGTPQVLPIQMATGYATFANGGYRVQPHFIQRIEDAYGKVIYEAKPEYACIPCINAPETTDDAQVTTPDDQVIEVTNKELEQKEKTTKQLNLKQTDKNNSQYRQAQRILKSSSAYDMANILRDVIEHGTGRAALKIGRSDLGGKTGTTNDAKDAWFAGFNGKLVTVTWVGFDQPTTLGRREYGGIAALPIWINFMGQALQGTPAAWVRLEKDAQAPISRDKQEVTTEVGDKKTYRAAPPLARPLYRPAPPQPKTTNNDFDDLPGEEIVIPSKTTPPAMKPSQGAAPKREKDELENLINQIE
How it was run: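 Purified PBP was preincubated with inhibitor (E. coli PBP3 1.5 μM, 30 min; P. aeruginosa PBP3 0.75 μM, A. baumannii PBP3 0.2 μM and PBP1a 1 μM, 15 min), then Bocillin-FL (0.1 μM; 0.05 μM for PBP1a) added and FP read up to 60 min. EC50 = 50% loss of bound probe.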

N. gonorrhoeae FA1090 = assay: Liquid broth MIC in Fastidious broth; conditions: Neisseria gonorrhoeae, FA1090, read-out: Minimum Inhibitory Concentration, FA 1090
N. gonorrhoeae MS11 = assay: Liquid broth MIC in Fastidious broth; conditions: Neisseria gonorrhoeae, MS11, read-out: Minimum Inhibitory Concentration, MS11
N. gonorrhoeae WHO G = assay: Liquid broth MIC in Fastidious broth; conditions: Neisseria gonorrhoeae, read-out: Minimum Inhibitory Concentration, WHO G
N. gonorrhoeae WHO M = assay: Liquid broth MIC in Fastidious broth; conditions: Neisseria gonorrhoeae, read-out: Minimum Inhibitory Concentration, WHO M
N. gonorrhoeae WHO X = assay: Liquid broth MIC in Fastidious broth; conditions: Neisseria gonorrhoeae, read-out: Minimum Inhibitory Concentration, WHO X
N. gonorrhoeae WHO Q = assay: Liquid broth MIC in Fastidious broth; conditions: Neisseria gonorrhoeae, read-out: Minimum Inhibitory Concentration, WHO Q
Protocol: Liquid broth-based assays were used for antibacterial testing of PBP inhibitors in Neisseria gonorrhoeae. Briefly, cryo-preserved bacterial cultures of clinical strains were streaked for isolation on Chocolate Agar (72 g/L (2×) GC Agar Base (BD #228950) and 2% (2×) Hemoglobin was autoclaved at 121° C. for 20 minutes to sterilize. Once cooled to ˜50° C. the 2×GC Agar Base and 2× Hemoglobin solutions are combined and 1% IsoVitaleX Enrichment (BD #211876) was added to the solution). Strains were incubated at 36° C. and 5% CO2 to allow growth of colonies, 24 hours before inoculum preparation. 2-fold serial dilutions of test compounds were conducted in a 96 well plate with a final volume of 75 μL per well at 2-fold the final desired concentration in Fastidious broth (Remel #R07664). For preparation of assay inoculum, a direct suspension was prepared by aseptically swabbing 10-15 colonies from agar plates into culture tubes containing 2 mL of fresh sterile saline. After the dilution plates were set up, direct suspensions were then diluted in a cuvette containing sterile saline and the optical density was measured at 600 nm. Inocula were diluted such that 75 μL of this culture in Fastidious broth results in a starting bacterial concentration of 5×10^5 CFU/mL when added to the dilution plates. The plates were incubated for ˜24 hours at 36° C. and 5% CO2.

N. gonorrhoeae CDC-0197 = assay: Liquid broth MIC in Fastidious broth; conditions: Neisseria gonorrhoeae, CDC0197, read-out: Minimum Inhibitory Concentration, CDC-0197

SMILES	IC50 [1] [µM]	MIC (N. gonorrhoeae FA1090) [µg/mL]	MIC (N. gonorrhoeae MS11) [µg/mL]	MIC (N. gonorrhoeae WHO G) [µg/mL]	MIC (N. gonorrhoeae WHO M) [µg/mL]	MIC (N. gonorrhoeae WHO X) [µg/mL]	MIC (N. gonorrhoeae WHO Q) [µg/mL]	MIC (N. gonorrhoeae CDC-0197) [µg/mL]
O=C(NCCCN1CCN(C(=O)N[C@H](C(=O)N[C@H]2Cc3ccc(F)c(C(=O)O)c3OB2O)c2cc(F)c(O)c(O)c2Cl)C(=O)C1=O)c1cccc(O)c1Cl [Example 302, (R)-3-((S)-2-(4-(3-(2-chloro-3-hydroxybenzamido)propyl)-2,3-dioxopiperazine-1-carboxamido)-2-(2-chloro-5-fluoro-3,4-dihydroxyphenyl)acetamido)-7-fluoro-2-hydroxy-3,4-dihydro-2H-benzo[e][1,2]oxaborinine-8-carboxylic acid]	> 250	> 64	> 64	> 64	> 64	> 64	> 64	> 64
O=C(NCCCN1CCN(C(=O)N[C@@H](C(=O)N[C@H]2Cc3ccc(F)c(C(=O)O)c3OB2O)c2cc(F)c(O)c(O)c2Cl)C(=O)C1=O)c1cccc(O)c1Cl [Example 303, (R)-3-((R)-2-(4-(3-(2-chloro-3-hydroxybenzamido)propyl)-2,3-dioxopiperazine-1-carboxamido)-2-(2-chloro-5-fluoro-3,4-dihydroxyphenyl)acetamido)-7-fluoro-2-hydroxy-3,4-dihydro-2H-benzo[e][1,2]oxaborinine-8-carboxylic acid]	> 250	1 to 2 (≈ 1.26 to 2.52 µM)	4 to 8 (≈ 5.04 to 10.1 µM)	4 to 8 (≈ 5.04 to 10.1 µM)	4 to 8 (≈ 5.04 to 10.1 µM)	> 64	> 64	16 to 32 (≈ 20.1 to 40.3 µM)
O=C(NCCCN1CCN(C(=O)NC(C(=O)N[C@H]2Cc3ccc(F)c(C(=O)O)c3OB2O)c2cc(F)c(O)c(O)c2Cl)C(=O)C1=O)c1ccc(O)c(F)c1 (stereo partly drawn) [Example 304, (3R)-3-(2-(2-chloro-5-fluoro-3,4-dihydroxyphenyl)-2-(4-(3-(3-fluoro-4-hydroxybenzamido)propyl)-2,3-dioxopiperazine-1-carboxamido)acetamido)-7-fluoro-2-hydroxy-3,4-dihydro-2H-benzo[e][1,2]oxaborinine-8-carboxylic acid]	> 250	1 to 2 (≈ 1.29 to 2.57 µM)	16 to 32 (≈ 20.6 to 41.1 µM)	16 to 32 (≈ 20.6 to 41.1 µM)	16 to 32 (≈ 20.6 to 41.1 µM)	> 64	> 64	> 64
O=C(NCCCN1CCN(C(=O)NC(C(=O)N[C@H]2Cc3ccc(F)c(C(=O)O)c3OB2O)c2cc(F)c(O)c(O)c2Cl)C(=O)C1=O)c1ccc(O)c(Cl)c1 (stereo partly drawn) [Example 305, (3R)-3-(2-(4-(3-(3-chloro-4-hydroxybenzamido)propyl)-2,3-dioxopiperazine-1-carboxamido)-2-(2-chloro-5-fluoro-3,4-dihydroxyphenyl)acetamido)-7-fluoro-2-hydroxy-3,4-dihydro-2H-benzo[e][1,2]oxaborinine-8-carboxylic acid]	> 250	1 to 2 (≈ 1.26 to 2.52 µM)	16 to 32 (≈ 20.1 to 40.3 µM)	16 to 32 (≈ 20.1 to 40.3 µM)	16 to 32 (≈ 20.1 to 40.3 µM)	> 64	> 64	> 64
O=C(NCCCN1CCN(C(=O)NC(C(=O)N[C@H]2Cc3ccc(F)c(C(=O)O)c3OB2O)c2cc(F)c(O)c(O)c2Cl)C(=O)C1=O)c1ccc(O)c(F)c1F (stereo partly drawn) [Example 306, (3R)-3-(2-(2-chloro-5-fluoro-3,4-dihydroxyphenyl)-2-(4-(3-(2,3-difluoro-4-hydroxybenzamido)propyl)-2,3-dioxopiperazine-1-carboxamido)acetamido)-7-fluoro-2-hydroxy-3,4-dihydro-2H-benzo[e][1,2]oxaborinine-8-carboxylic acid]	> 250	1 to 2 (≈ 1.26 to 2.51 µM)	16 to 32 (≈ 20.1 to 40.2 µM)	16 to 32 (≈ 20.1 to 40.2 µM)	16 to 32 (≈ 20.1 to 40.2 µM)	> 64	> 64	> 64
O=C(NCCCN1CCN(C(=O)NC(C(=O)N[C@H]2Cc3ccc(F)c(C(=O)O)c3OB2O)c2cc(F)c(O)c(O)c2Cl)C(=O)C1=O)c1ccc(O)cc1O (stereo partly drawn) [Example 307, (3R)-3-(2-(2-chloro-5-fluoro-3,4-dihydroxyphenyl)-2-(4-(3-(2,4-dihydroxybenzamido)propyl)-2,3-dioxopiperazine-1-carboxamido)acetamido)-7-fluoro-2-hydroxy-3,4-dihydro-2H-benzo[e][1,2]oxaborinine-8-carboxylic acid]	> 250	1 to 2 (≈ 1.29 to 2.58 µM)	16 to 32 (≈ 20.6 to 41.2 µM)	16 to 32 (≈ 20.6 to 41.2 µM)	16 to 32 (≈ 20.6 to 41.2 µM)	> 64	> 64	> 64
